Data on one compound can be found in article PMC11897194 (Nature Communications, 2025).

The target in this assay is T1, EfAvs5 (Kosakonia oryzae, UniProt A0AA94GZI5).
T1 sequence (A0AA94GZI5 1-849): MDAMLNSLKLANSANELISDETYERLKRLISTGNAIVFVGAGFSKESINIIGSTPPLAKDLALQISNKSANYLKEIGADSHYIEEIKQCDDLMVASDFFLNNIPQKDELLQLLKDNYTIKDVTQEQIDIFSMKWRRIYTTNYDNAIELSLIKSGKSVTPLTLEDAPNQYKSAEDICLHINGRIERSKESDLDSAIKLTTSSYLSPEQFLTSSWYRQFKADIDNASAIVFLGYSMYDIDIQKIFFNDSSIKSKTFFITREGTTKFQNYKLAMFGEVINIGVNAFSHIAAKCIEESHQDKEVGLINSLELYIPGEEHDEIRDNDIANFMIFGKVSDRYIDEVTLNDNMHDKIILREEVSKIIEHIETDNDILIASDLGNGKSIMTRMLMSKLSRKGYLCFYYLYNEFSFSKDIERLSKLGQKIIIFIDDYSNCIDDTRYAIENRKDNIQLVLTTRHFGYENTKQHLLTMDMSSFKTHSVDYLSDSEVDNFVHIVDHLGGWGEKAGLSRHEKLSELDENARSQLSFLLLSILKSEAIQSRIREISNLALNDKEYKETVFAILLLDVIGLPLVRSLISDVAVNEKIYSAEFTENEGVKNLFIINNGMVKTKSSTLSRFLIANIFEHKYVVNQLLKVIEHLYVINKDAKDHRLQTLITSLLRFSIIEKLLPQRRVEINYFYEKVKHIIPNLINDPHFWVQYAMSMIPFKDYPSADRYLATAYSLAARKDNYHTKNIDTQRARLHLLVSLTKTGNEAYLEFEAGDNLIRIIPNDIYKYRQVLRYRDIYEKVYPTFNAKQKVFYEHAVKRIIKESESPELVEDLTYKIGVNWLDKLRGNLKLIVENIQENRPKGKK
Put plainly: biochemical.

SMILES strings stand for the structures.

Compound `Nc1ncnc2c1ncn2[C@@H]1O[C@H](COP(=O)(O)OP(=O)(O)OP(=O)(O)O)[C@@H](O)[C@H]1O` [ATP] registered a Ki of 1740 ± 98 µM.
